Like-named read-outs stand apart in the source and are kept apart here.

The values that follow come from patent US20150366199A1, “COMPOSITIONS COMPRISING GOUGEROTIN AND AN INSECTICIDE” (priority 2013, published 2015).

Data set [1] relates to mustard beetle larvae (Phaedon cochleariae). Description: Phaedon cochleariae - spray test. Conditions: for Efficacy in % after 2d: mortality after 2 d; for Efficacy in % after 6d: mortality after 6 d.
Description: The expected efficacy of a given combination of two compounds is calculated as follows (see Colby, S. R., “Calculating Synergistic and antagonistic Responses of Herbicide Combinations”, Weeds 15, pp. 20-22, 1967):
Solvent: 78.0 parts by weight of acetone • • 1.5 parts by weight of dimethylformamide
To produce a suitable preparation of a NRRL B-50550, 1 part by weight of NRRL B-50550 75 WP was mixed with the stated amount of solvents and was diluted with water, containing an emulsifier concentration of 1000 ppm, to the desired concentration. Further test concentrations are prepared by dilution with emulsifier containing water.
Chinese cabbage (Brassica pekinensis) leaf-disks are sprayed with a preparation of the active ingredient of the desired concentration. Once dry, the leaf disks are infested with mustard beetle larvae (Phaedon cochleariae).
After the specified period of time, mortality in % is determined 100% means all beetle larvae have been killed and 0% means none of the beetle larvae have been killed. The mortality values determined thus are recalculated using the Colby-formula.
Data set [2] concerns fall armyworm larvae (Spodoptera frugiperda). Description: Spodoptera frugiperda - spray test. To be noted: for Efficacy in % after 6d: mortality after 6 d; for Efficacy in % after 2d: mortality after 2 d.
Description: Solvent: 78.0 parts by weight acetone • 1.5 parts by weight dimethylformamide
To produce a suitable preparation of NRRL B-50550, 1 part by weight of NRRL B-50550 75 WP is mixed with the stated amount of solvents and is diluted with water, containing an emulsifier concentration of 1000 ppm, to the desired concentration. Further test concentrations are prepared by dilution with emulsifier containing water.
Maize (Zea mais) leaf sections are sprayed with a preparation of the active ingredient of the desired concentration. Once dry, the leaf sections are infested with fall armyworm larvae (Spodoptera frugiperda).
After the specified period of time, mortality in % is determined 100% means all caterpillars have been killed and 0% means none of the caterpillars have been killed. The mortality values determined thus are recalculated using the Colby-formula.
For data set [3], the system named is two spotted spidermite (Tetranychus urticae). The data set is described as follows: Tetranychus urticae - spray test, OP-resistant. To be noted: mortality after 6 d. The format is in vivo. The text has this: (§1) Emulsifier: alkylaryl polyglycol ether
In data set [4] the test system is green peach aphid (Myzus persicae). The data set is described as follows: Myzus persicae - spray test (Chinese cabbage leaf-disks, Example 6). To be noted: for Efficacy in % after 1d: mortality after 1 d; for Efficacy in % after 6d: mortality after 6 d. The format is in vivo.
Description: as §1

The conditions of data set [5]: cited from earlier work.
Data set [6] concerns gram-positive, gram-negative bacteria and tubercule bacillus. To be noted: cited from earlier work.
A further data set concerns mites. To be noted: cited from earlier work.
Another data set concerns pin worm. Conditions: parasites on animals, such as pin worm, cited from earlier work.
The subject of data set [7] is green peach aphid (Myzus persicae). Description: Myzus persicae - spray test (pepper leaves, Example 8). The format is in vivo. Conditions: 0.5 ppm.

As for `Cc1c(F)c(F)c(COC(=O)[C@@H]2[C@H](/C=C(\Cl)C(F)(F)F)C2(C)C)c(F)c1F` (racemic) [Tefluthrin], the “Efficacy in % after 2d” value in data set [1] (40 ppm) is 0%.

With `CNC(=O)c1cc(C#N)cc(C)c1NC(=O)c1cc(Cn2nnc(C(F)(F)F)n2)nn1-c1ncccc1Cl` [1-(3-chloropyridin-2-yl)-N-[4-cyano-2-methyl-6-(methylcarbamoyl)phenyl]-3-{[5-(trifluoromethyl)-2H-tetrazol-2-yl]methyl}-1H-pyrazole-5-carboxamide], the “Efficacy in % after 6d” value was 33% in data set [2] (0.64 ppm) and 0% in data set [1] (0.128 ppm). Also, in data set [1] (0.64 ppm), the “Efficacy in % after 2d” value was found to be 50%.

As to `Cc1cc(F)c(-n2nc(C(F)(F)F)nc2N)cc1[S+]([O-])CC(F)(F)F` (stereo not drawn) [1-{2-fluoro-4-methyl-5-[(2,2,2-trifluorethyl)sulfinyl]phenyl}-3-(trifluoromethyl)-1H-1,2,4-triazol-5-amine], the “Efficacy in % after 6d” value in data set [3] (3.2 ppm) was found to be 0%.

`CNC(=O)c1cc(Cl)cc(C)c1NC(=O)c1cc(Br)nn1-c1ncccc1Cl` [Chlorantraniliprole]: in [4] (3.2 ppm), the “Efficacy in % after 1d” value was 0%. The “Efficacy in % after 6d” value in data set [3] (16 ppm) is 0%.

`CN/C(=N\[N+](=O)[O-])NCc1cnc(Cl)s1` [Clothianidin]: the “Efficacy in % after 6d” value in data set [4] (0.32 ppm) came to 0%.

`CNC(=O)c1cc(C#N)cc(C)c1NC(=O)c1cc(Br)nn1-c1ncccc1Cl` [Cyantraniliprole]: the “Efficacy in % after 6d” value in data set [1] (0.64 ppm), in data set [4] (0.64 ppm), in [4] (3.2 ppm) and in [3] (80 ppm) was 0% in each case. The “Efficacy in % after 1d” value in data set [4] (16 ppm) was 0%.

Regarding `N#Cc1nn(-c2c(Cl)cc(C(F)(F)F)cc2Cl)c(N)c1[S+]([O-])C(F)(F)F` (stereo not drawn) [Fipronil], the “Efficacy in % after 6d” value in data set [2] (16 ppm) is on record as 0%.

With `Cc1cc(C(F)(C(F)(F)F)C(F)(F)F)ccc1NC(=O)c1cccc(I)c1C(=O)NC(C)(C)CS(C)(=O)=O` [Flubendiamide], in data set [2] (3.2 ppm), the “Efficacy in % after 2d” value was found to be 33%.

For the compound `CNCC(=O)NC(CO)C(=O)NC1C(C(N)=O)OC(n2ccc(N)nc2=O)C(O)C1O` [Gougerotin, 1-(4-Amino-2-oxo-1(2H)-pyrimidinyl)-1,4-dideoxy-4-[[N—(N-methylglycyl)-D-seryl]amino]-b-D-glucopyranuronamide], the water solubility result in [5] is “water soluble”. Also, in [6], the antibacterial activity result was “weak”. Also, the “acaricidal (miticidal) effect” value in the data set on mites is “acaricidal (miticidal) effect”. The figures for the parasiticidal activity result in the data set with pin worm and in the data set on pin worm (listed as gougerotin) were “inhibitory effect on the ovulation of pin worms” and “parasiticidal action”, respectively.

Turning to `O=[N+]([O-])NC1=NCCN1Cc1ccc(Cl)nc1` [Imidacloprid], the “Efficacy in % after 6d” value in data set [3] (2 ppm) turned out to be 0%.

Regarding `CNC(=O)Oc1cc(C)c(SC)c(C)c1` [Methiocarb], the “Efficacy in % after 6d” value in data set [4] (2000 ppm) amounted to 0%.

For the compound `CC(c1ccc(C(F)(F)F)nc1)S(C)(=O)=NC#N` (stereo not drawn) [Sulfoxaflor], the “Efficacy in % after 1d” value in [4] (0.64 ppm) is 0%.

For the compound `N#C/N=C1\SCCN1Cc1ccc(Cl)nc1` [Thiacloprid], in [7] (mortality after 2 d), the “Efficacy in % after 2d” value is recorded as 40%. The “Efficacy in % after 3d” value in [7] (mortality after 3 d) is listed as 20%. Further, in data set [7] (mortality after 7 d), the “Efficacy in % after 7d” value amounted to 10%.

As to `CS/C(C)=N\OC(=O)N(C)SN(C)C(=O)O/N=C(\C)SC` [Thiodicarb], the “Efficacy in % after 2d” value in [2] (40 ppm) was determined as 0%.

Regarding `CC1(C)C(C=C(Cl)Cl)C1C(=O)OC(C#N)c1ccc(F)c(Oc2ccccc2)c1` (stereo not drawn) [β-Cyfluthrin, beta-Cyfluthrin], the “Efficacy in % after 6d” value in data set [2] (1.6 ppm), in data set [1] (1.6 ppm) and in data set [4] (1.6 ppm) was 0% each time.

In the case of Spinetoram, the “Efficacy in % after 2d” value in data set [2] (0.64 ppm) is on record as 0%.

As to Spinosad, in data set [2] (0.64 ppm), the “Efficacy in % after 6d” value came out at 0%. For the same compound, in data set [1] (80 ppm), the “Efficacy in % after 2d” value is on record as 50%.
